According to US20100267561A1, “HERBICIDAL PYRIDAZINONE DERIVATIVES” (priority 2007, published 2010):

Tests used:
Type in all cases: in vivo
Conditions in all cases: Preemergence
[1] = system: large crabgrass (Digitaria sanguinalis); assay: Test B pre-/postemergence plant response
Method in brief: (§1)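 Visual scoring from 0 (no effect) to 100 (complete control) against untreated controls was done 13 to 15 days after greenhouse treatment. Chemicals were formulated in a surfactant-containing non-phytotoxic solvent and applied to soil preemergence or to 1- to 4-leaf (2-18 cm) plants postemergence.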

[2] = system: woolly cupgrass (Eriochloa villosa); assay: Test B pre-/postemergence plant response
Method in brief: as §1

[3] = system: blackgrass (Alopecurus myosuroides); assay: Test C pre-/postemergence plant response
Method in brief: (§2)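 Ratings ran from 0 (no effect) to 100 (complete control) and were made visually against untreated controls 15–25 days after treatment in a controlled growth environment. Application was preemergence and, for some chemicals, postemergence at the 1- to 4-leaf stage (2–18 cm). Formulation was a non-phytotoxic solvent mixture with surfactant.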

[4] = system: green foxtail (Setaria viridis); assay: Test C pre-/postemergence plant response
Method in brief: as §2

[5] = system: wild mustard (Sinapis arvensis); assay: Test C pre-/postemergence plant response
Method in brief: as §2

[6] = system: downy bromegrass (Bromus tectorum); assay: Test C pre-/postemergence plant response
Method in brief: as §2

[7] = system: Italian ryegrass (Lolium multiflorum); assay: Test C pre-/postemergence plant response
Method in brief: as §2

[8] = system: canarygrass (Phalaris minor); assay: Test C pre-/postemergence plant response
Method in brief: as §2

[9] = system: winter wheat (Triticum aestivum); assay: Test C pre-/postemergence plant response
Method in brief: as §2

[10] = system: spring barley (Hordeum vulgare); assay: Test C pre-/postemergence plant response
Method in brief: as §2

[11] = system: pigweed (Amaranthus retroflexus); assay: Test C pre-/postemergence plant response
Method in brief: as §2

[12] = system: annual bluegrass (Poa annua); assay: Test C pre-/postemergence plant response
Method in brief: as §2

[13] = system: wild oat (Avena fatua); assay: Test C pre-/postemergence plant response
Method in brief: as §2

[14] = 31 g ai/ha, 0 to 100 scale, 0 no effect, 100 complete control
[15] = 8 g ai/ha, scale 0 to 100 (0 no effect, 100 complete control)
[16] = 16 g ai/ha, scale 0 to 100 (0 no effect, 100 complete control)
[17] = 31 g ai/ha, scale 0 to 100 (0 no effect, 100 complete control)
[18] = 62 g ai/ha, scale 0 to 100, 0 no effect, 100 complete control

Cc1cc(-c2ccc(Cl)cc2)nn1-c1c(OS(=O)(=O)c2ccccc2[N+](=O)[O-])cnn(C)c1=O [Compound 51]
Plant response rating, Crabgrass, Large [1, 14]: 75 | Plant response rating, Crabgrass, Large ([1]; 62 g ai/ha, scale 0 to 100): 90 | Crabgrass, Large plant response rating ([1]; 8 g ai/ha, scale 0 to 100): 0 | Crabgrass, Large plant response rating ([1]; 16 g ai/ha, scale 0 to 100): 20 | Plant response rating, Cupgrass, Woolly [2, 14]: 90 | Plant response rating, Cupgrass, Woolly ([2]; 62 g ai/ha, scale 0 to 100): 100 | Cupgrass, Woolly plant response rating ([2]; 8 g ai/ha, scale 0 to 100): 0 | Cupgrass, Woolly plant response rating ([2]; 16 g ai/ha, scale 0 to 100): 80 | Plant response rating, Blackgrass [3, 15]: 0 | Plant response rating, Blackgrass [3, 16]: 35 | Plant response rating, Blackgrass [3, 17]: 100 | Plant response rating, Blackgrass [3, 18]: 100 | Plant response rating, Foxtail, Green [4, 15]: 10 | Plant response rating, Foxtail, Green [4, 16]: 80 | Plant response rating, Foxtail, Green [4, 17]: 100 | Plant response rating, Foxtail, Green [4, 18]: 100 | Plant response rating, Mustard, Wild [5, 16]: 0 | Plant response rating, Mustard, Wild [5, 17]: 0 | Plant response rating, Mustard, Wild [5, 18]: 0 | Plant response rating, Bromegrass, Downy [6, 15]: 0 | Plant response rating, Bromegrass, Downy [6, 16]: 0 | Plant response rating, Bromegrass, Downy [6, 17]: 0 | Plant response rating, Bromegrass, Downy [6, 18]: 50 | Plant response rating, Ryegrass, Italian [7, 15]: 0 | Plant response rating, Ryegrass, Italian [7, 16]: 90 | Plant response rating, Ryegrass, Italian [7, 18]: 90 | Plant response rating, Canarygrass [8, 15]: 0 | Plant response rating, Canarygrass [8, 16]: 0 | Plant response rating, Canarygrass [8, 17]: 80 | Plant response rating, Canarygrass [8, 18]: 90 | Plant response rating, Wheat, Winter [9, 15]: 0 | Plant response rating, Wheat, Winter [9, 16]: 0 | Plant response rating, Wheat, Winter [9, 17]: 0 | Plant response rating, Wheat, Winter [9, 18]: 40 | Plant response rating, Barley, Spring [10, 15]: 0 | Plant response rating, Barley, Spring [10, 16]: 15 | Plant response rating, Barley, Spring [10, 17]: 20 | Plant response rating, Barley, Spring [10, 18]: 70 | Plant response rating, Pigweed [11, 15]: 0 | Plant response rating, Pigweed [11, 16]: 0 | Plant response rating, Pigweed [11, 17]: 0 | Plant response rating, Pigweed [11, 18]: 0 | Plant response rating, Bluegrass [12, 15]: 0 | Plant response rating, Bluegrass [12, 16]: 0 | Plant response rating, Bluegrass [12, 17]: 0 | Plant response rating, Bluegrass [12, 18]: 10 | Plant response rating, Oat, Wild [13, 15]: 0 | Plant response rating, Oat, Wild [13, 16]: 0 | Plant response rating, Oat, Wild [13, 17]: 35 | Plant response rating, Oat, Wild [13, 18]: 50
